Data reported in ChEMBL document CHEMBL5465560, “Selectivity Literature for EUbOPEN Chemogenomic Library” (2024).

Key:
[1] = target: T1, Dual specificity tyrosine-phosphorylation-regulated kinase 2 (Homo sapiens) (UniProt Q92630); test: Selectivity interaction (KinomeScan (DiscoverX)) EUB0001079a DYRK2; details: at 1 µM
T1 sequence (whole entry): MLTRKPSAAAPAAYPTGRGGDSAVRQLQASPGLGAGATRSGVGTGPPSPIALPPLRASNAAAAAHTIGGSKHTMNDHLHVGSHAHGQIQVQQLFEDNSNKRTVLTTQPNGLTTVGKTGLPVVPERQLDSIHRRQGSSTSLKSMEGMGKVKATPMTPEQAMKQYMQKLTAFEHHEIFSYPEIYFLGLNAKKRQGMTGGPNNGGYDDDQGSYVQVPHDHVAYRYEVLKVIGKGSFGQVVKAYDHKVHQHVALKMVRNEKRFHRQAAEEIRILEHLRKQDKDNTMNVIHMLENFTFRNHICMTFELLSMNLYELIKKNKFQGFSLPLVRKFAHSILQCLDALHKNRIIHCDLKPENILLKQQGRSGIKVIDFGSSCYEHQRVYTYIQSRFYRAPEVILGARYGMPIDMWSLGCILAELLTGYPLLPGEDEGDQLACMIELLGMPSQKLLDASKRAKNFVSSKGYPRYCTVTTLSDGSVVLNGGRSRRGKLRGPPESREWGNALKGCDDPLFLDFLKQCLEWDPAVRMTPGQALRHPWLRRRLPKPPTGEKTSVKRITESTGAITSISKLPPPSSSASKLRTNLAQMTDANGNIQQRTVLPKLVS

[2] = target: CDK7/Cyclin H/MNAT1 (Homo sapiens) (UniProt P51946+P50613+P51948); test: Selectivity interaction (Adapta Assay) EUB0001632a CDK7; assay type: protein-complex assay; details: at 10 µM
[3] = target: Protein-tyrosine kinase 6 (Homo sapiens, UniProt Q13882); test: Selectivity interaction (KinomeScan (DiscoverX)) EUB0000666a PTK6; details: at 10 µM
[4] = target: T2, Atypical kinase COQ8B, mitochondrial (Homo sapiens) (UniProt Q96D53); test: Selectivity interaction (KinomeScan (DiscoverX)) EUB0000666a ADCK4; details: at 10 µM
T2 sequence (whole entry): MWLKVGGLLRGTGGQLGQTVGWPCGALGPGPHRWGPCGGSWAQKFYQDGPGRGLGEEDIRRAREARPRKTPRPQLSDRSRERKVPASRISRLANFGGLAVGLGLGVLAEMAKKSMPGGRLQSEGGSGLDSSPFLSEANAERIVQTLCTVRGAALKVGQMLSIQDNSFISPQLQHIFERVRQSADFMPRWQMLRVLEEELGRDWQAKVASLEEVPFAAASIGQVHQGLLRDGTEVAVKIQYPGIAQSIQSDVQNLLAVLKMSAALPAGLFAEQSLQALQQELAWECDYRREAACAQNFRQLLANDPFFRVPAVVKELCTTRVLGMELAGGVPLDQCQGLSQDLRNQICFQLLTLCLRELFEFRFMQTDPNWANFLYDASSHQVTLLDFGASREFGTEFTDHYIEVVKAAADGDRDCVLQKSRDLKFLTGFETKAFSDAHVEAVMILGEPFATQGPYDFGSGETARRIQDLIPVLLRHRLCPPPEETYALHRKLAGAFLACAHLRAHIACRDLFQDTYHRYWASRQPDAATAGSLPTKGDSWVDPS

[5] = target: Rho-associated protein kinase 1 (Homo sapiens) (UniProt Q13464); details: at 10 µM
[6] = target: Protein kinase C eta type (Homo sapiens) (UniProt P24723); details: at 10 µM
[7] = target: T3, Serine/threonine-protein kinase 36 (Homo sapiens) (UniProt Q9NRP7); test: Selectivity interaction (KinomeScan (DiscoverX)) EUB0000607a STK36; details: at 10 µM
T3 sequence (whole entry): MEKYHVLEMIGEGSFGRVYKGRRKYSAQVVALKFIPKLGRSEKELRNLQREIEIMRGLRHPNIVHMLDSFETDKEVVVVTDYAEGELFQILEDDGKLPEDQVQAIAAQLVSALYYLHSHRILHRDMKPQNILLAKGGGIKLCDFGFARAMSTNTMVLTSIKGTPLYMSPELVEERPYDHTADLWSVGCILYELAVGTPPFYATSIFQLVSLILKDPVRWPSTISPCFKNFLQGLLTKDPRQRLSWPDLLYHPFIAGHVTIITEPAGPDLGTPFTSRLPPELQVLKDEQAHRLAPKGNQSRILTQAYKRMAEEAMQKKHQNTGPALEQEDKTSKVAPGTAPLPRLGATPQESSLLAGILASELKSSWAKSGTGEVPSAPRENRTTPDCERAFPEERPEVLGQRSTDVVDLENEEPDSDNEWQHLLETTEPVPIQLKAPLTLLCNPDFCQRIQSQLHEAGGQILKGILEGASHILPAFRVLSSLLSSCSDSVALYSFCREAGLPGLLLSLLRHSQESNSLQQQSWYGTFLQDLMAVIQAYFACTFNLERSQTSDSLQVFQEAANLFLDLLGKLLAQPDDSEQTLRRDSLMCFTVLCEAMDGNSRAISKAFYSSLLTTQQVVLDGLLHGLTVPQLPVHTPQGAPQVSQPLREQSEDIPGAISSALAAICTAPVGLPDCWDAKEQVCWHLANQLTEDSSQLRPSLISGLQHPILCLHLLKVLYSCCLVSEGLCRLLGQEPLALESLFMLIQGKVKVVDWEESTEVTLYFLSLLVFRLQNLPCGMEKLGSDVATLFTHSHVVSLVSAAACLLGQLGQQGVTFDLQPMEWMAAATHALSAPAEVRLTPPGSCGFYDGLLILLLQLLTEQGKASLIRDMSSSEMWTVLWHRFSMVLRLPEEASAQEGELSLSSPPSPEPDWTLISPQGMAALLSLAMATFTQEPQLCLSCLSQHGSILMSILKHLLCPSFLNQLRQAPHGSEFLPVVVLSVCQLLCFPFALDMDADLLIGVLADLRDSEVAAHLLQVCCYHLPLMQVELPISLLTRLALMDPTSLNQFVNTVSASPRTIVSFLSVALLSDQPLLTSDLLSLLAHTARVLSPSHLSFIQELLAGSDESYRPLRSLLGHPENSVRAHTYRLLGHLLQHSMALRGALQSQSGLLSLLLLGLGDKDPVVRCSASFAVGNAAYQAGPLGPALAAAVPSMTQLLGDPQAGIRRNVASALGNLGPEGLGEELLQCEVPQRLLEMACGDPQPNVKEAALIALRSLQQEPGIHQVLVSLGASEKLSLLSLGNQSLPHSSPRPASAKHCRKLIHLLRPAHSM

[8] = target: 5'-AMP-activated protein kinase catalytic subunit alpha-2 (Homo sapiens) (UniProt P54646); test: Selectivity interaction (KinomeScan (DiscoverX)) EUB0000618a PRKAA2; details: at 10 µM
[9] = target: Mitogen-activated protein kinase 10 (Homo sapiens, UniProt P53779); test: Selectivity interaction (ActivX KiNativ screen (kinase selectivity in THP-1 cell lysates)) EUB0000639a MAPK10; assay type: subcellular; details: lysate
Sequence of Mitogen-activated protein kinase 10 (P53779 whole entry): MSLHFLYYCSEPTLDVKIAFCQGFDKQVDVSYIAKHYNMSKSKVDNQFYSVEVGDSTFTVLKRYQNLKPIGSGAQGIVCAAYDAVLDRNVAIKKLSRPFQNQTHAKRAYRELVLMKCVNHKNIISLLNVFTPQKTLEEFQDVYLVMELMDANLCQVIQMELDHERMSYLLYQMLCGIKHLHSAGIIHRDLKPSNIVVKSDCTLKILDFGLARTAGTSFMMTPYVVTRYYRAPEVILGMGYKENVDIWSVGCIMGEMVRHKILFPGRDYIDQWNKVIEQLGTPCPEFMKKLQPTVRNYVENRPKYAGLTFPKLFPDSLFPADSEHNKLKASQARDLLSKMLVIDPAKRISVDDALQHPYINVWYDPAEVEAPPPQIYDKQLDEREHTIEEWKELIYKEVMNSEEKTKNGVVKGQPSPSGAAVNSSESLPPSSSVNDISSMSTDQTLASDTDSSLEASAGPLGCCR

Sequence of Rho-associated protein kinase 1 (Homo sapiens) (Q13464 2-1354 limits assumed): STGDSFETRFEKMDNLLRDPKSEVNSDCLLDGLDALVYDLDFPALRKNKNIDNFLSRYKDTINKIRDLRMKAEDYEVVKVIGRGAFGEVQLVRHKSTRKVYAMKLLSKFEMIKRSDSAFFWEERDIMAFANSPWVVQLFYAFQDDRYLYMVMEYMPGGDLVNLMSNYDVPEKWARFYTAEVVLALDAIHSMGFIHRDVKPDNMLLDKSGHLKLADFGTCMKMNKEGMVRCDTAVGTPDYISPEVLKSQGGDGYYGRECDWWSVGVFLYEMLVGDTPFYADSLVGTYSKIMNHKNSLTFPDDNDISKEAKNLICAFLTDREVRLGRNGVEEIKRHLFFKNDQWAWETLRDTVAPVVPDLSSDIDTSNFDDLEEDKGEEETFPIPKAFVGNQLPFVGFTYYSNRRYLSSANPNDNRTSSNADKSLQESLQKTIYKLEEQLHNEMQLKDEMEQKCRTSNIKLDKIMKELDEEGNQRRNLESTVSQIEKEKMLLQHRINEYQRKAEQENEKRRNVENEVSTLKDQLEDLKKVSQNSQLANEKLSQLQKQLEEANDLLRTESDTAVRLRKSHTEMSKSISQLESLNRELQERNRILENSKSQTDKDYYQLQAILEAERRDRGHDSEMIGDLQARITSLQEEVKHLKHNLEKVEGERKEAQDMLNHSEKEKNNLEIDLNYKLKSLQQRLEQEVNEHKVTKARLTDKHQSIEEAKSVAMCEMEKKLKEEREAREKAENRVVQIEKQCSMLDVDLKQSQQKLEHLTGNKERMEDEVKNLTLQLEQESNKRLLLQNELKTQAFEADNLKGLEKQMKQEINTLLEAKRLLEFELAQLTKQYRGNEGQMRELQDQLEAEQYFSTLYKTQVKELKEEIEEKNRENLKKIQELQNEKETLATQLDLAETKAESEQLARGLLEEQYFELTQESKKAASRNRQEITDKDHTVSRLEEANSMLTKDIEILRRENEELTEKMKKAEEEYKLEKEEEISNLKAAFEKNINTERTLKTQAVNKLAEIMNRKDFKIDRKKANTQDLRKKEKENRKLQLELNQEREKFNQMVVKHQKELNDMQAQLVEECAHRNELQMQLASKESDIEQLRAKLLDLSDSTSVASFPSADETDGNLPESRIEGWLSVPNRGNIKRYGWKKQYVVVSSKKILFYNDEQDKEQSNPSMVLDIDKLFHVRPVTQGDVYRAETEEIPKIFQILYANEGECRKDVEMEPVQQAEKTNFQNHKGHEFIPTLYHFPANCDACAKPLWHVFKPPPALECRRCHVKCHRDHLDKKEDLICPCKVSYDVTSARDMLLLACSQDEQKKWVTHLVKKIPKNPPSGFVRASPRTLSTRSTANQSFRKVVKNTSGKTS
Sequence of 5'-AMP-activated protein kinase catalytic subunit alpha-2 (Homo sapiens) (P54646 whole entry, looked up): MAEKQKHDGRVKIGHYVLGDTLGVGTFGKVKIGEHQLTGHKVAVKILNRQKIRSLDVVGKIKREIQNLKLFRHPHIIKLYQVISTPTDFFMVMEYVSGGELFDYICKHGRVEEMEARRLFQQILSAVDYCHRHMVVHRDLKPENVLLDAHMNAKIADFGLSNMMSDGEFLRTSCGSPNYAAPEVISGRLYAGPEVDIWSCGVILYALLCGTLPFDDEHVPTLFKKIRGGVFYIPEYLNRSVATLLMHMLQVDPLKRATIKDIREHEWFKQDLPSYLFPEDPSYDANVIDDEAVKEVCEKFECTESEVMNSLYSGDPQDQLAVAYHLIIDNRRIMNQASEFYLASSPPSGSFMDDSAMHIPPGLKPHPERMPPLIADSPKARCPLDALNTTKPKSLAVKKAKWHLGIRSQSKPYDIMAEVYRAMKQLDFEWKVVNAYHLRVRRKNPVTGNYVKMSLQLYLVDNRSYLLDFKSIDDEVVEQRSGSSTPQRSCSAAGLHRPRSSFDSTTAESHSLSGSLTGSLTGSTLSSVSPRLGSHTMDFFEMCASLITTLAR
Sequence of Protein-tyrosine kinase 6 (Q13882 whole entry, looked up): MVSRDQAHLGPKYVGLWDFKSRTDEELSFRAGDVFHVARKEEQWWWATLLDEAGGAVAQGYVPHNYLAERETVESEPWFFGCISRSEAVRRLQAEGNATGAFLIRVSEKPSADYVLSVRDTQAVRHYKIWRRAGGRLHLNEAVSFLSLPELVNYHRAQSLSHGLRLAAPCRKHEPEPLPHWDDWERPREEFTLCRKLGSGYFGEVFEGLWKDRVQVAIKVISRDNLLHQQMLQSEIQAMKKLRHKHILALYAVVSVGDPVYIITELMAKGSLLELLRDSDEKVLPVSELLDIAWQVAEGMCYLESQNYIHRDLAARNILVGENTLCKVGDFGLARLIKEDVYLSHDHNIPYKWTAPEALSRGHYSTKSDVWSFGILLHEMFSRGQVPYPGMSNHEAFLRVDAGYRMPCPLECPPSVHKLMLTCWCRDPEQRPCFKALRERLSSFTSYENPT
Sequence of Protein kinase C eta type (Homo sapiens) (P24723 whole entry): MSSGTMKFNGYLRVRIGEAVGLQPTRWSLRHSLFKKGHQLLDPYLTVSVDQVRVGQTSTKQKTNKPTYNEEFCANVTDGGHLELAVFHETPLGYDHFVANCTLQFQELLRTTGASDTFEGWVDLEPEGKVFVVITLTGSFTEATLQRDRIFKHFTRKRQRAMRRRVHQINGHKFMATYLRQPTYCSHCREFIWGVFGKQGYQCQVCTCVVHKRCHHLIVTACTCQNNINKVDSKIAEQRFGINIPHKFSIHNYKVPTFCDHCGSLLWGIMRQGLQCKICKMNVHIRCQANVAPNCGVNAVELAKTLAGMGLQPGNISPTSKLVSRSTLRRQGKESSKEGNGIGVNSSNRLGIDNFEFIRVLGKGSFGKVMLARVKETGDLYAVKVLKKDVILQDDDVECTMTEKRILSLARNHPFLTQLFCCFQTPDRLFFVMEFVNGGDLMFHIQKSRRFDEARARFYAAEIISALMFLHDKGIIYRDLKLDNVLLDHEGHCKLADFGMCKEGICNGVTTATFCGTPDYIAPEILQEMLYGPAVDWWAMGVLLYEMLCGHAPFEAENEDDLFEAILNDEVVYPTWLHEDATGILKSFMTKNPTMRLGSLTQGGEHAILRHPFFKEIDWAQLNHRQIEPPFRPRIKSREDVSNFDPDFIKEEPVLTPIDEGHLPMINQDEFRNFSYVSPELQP

For Nc1cnc(N2CCc3cc(S(=O)(=O)Nc4c(F)cc(Cl)cc4F)cc(N4CCCC4=O)c32)nc1 [TP-020n], the % of control [1] was 89%.

With Cn1cc(-n2cnc3c(NCc4nc5cc(Cl)c(Cl)cc5[nH]4)nc(N4CCOCC4)nc32)cn1 the % of inhibition [2] was -13.5%.

In the case of O=C(NOC[C@H](O)CO)c1ccc(F)c(F)c1Nc1ccc(I)cc1F, the % of control [3] is reported as 46% and the % of control [4] is reported as 100%.

Cc1cc([C@@H](C)Nc2ccccc2C(=O)O)c2nc(N3CCOCC3)cc(=O)n2c1 [AZD-6482] showed a % of control [5] of 73% and a % of control [6] of 82%.

CNC(=O)Nc1ccc(-c2nc(N3CC4CCC(C3)O4)c3cnn(C4CCC5(CC4)OCCO5)c3n2)cc1 was tested, and the % of control [7] was 96%.

O[C@H]1CC[C@H](Nc2ncc3nc(Nc4c(F)cc(F)cc4F)n([C@H]4CCOC4)c3n2)CC1 gave a % of control [8] of 100%.

For CC[C@@H]1[C@H](F)C(=O)N[C@@H]1COc1nccc2cc(C(N)=O)c(OC)cc12 [ZIMLOVISERTIB], the % of inhibition ([9]; at 0.01 µM) was 13.3%, the % of inhibition ([9]; at 0.04 µM) was -1.4% and the % of inhibition ([9]; at 0.2 µM) was 1.6%. For the same molecule, the % of inhibition ([9]; at 1 µM) was 27.7% and the % of inhibition ([9]; at 5 µM) was 57.5%.
